Data from the supplement of paper PMC7840683.
Structures can show the parent of a compound that is named as a salt.

Test system: HepaRG
Test: LDH release cytotoxicity, % of total lysis control; higher = more cytotoxic
Conditions: 48 h
Method in brief: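 On collagen I-coated 96-well plates, single-lot HepaRG cells were exposed for 48 h, in duplicate, to eight-point half-log series of test chemicals beginning at 100 µM. The exposure medium was serum-free induction medium with 0.5% DMSO, and total lysis wells got 0.1% Triton X. Resorufin fluorescence from the CytoTox-ONE reaction, read on a Tecan Safire, reported LDH in 50 µL of spent medium. Percent cytotoxicity came from normalization to on-plate vehicle and total lysis controls, averaged over the duplicates.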

COC=C(C(=O)OC)c1ccccc1Oc1cc(Oc2ccccc2C#N)ncn1 [Azoxystrobin]
Conditions	LDH release cytotoxicity [%]
0.03162 µM	-1.32
0.1 µM	-1.84
0.3162278 µM	-2.03
1 µM	-2.35
3.16228 µM	-2.2
10 µM	-1.39
31.6228 µM	-1.83
100 µM	18.63

N#CC(Br)Br [Dibromoacetonitrile]
Conditions	LDH release cytotoxicity [%]
0.03162 µM	-2.24
0.1 µM	-3.22
0.3162278 µM	-2.74
1 µM	-2.98
3.16228 µM	-2.65
10 µM	-2.89
31.6228 µM	-2.1
100 µM	-0.937

N#CSCSC#N [Methylene bis(thiocyanate)]
Conditions	LDH release cytotoxicity [%]
0.03162 µM	0.59
0.1 µM	0.474
0.3162278 µM	-0.978
1 µM	-0.877
3.16228 µM	-0.508
10 µM	0.525
31.6228 µM	3.74
100 µM	66.1

O=C(O)c1cccc(N(Cc2cccnc2)c2ccc(OC(F)F)c(OC(F)F)c2)c1
Conditions	LDH release cytotoxicity [%]
0.03162 µM	-1.28
0.1 µM	-1.45
0.3162278 µM	-1.1
1 µM	-1.77
3.16228 µM	-1.858
10 µM	-2.03
31.6228 µM	-2.58
100 µM	-1.73

CCCCC(CC)C(=O)O (configuration not stated) [2-Ethylhexanoic acid]
Conditions	LDH release cytotoxicity [%]
0.0327296 µM	-0.279
0.1035 µM	-1.03
0.327296 µM	-1.23
1.035 µM	-1.42
3.27296 µM	-1.45
10.35 µM	-1.29
32.729574 µM	-1.58
103.5 µM	-0.99

O=C(O)C1(c2ccc3c(c2)OCC(Cc2ccc(-c4ccccc4)cc2)C3O)CCCC1 (configuration not stated)
Conditions	LDH release cytotoxicity [%]
0.03162 µM	-0.731
0.1 µM	-0.599
0.3162278 µM	-0.19
1 µM	-0.676
3.16228 µM	-0.648
10 µM	0.306
31.6228 µM	2.92
100 µM	72.9

C=C(C)C(N)=O [Methacrylamide]
Conditions	LDH release cytotoxicity [%]
0.03162 µM	0.244
0.1 µM	-1.11
0.3162278 µM	-1.39
1 µM	-1.09
3.16228 µM	-1.32
10 µM	-0.285
31.6228 µM	-0.444
100 µM	2.64

ClC1(Cl)C2(Cl)C3(Cl)C4(Cl)C(Cl)(Cl)C5(Cl)C3(Cl)C1(Cl)C5(Cl)C24Cl (configuration not stated) [Mirex]
Conditions	LDH release cytotoxicity [%]
0.031623 µM	1.5
0.1 µM	-1.3
0.316228 µM	-1.85
1 µM	-2.25
3.16228 µM	-1.59
10 µM	-1.21
31.6228 µM	-1.01
100 µM	0.619

Oc1cccc2cccnc12 [8-Hydroxyquinoline]
Conditions	LDH release cytotoxicity [%]
0.03162 µM	-1.07
0.1 µM	-1.23
0.3162278 µM	-1.16
1 µM	-1.2
3.16228 µM	-1.01
10 µM	-0.111
31.6228 µM	0.218
100 µM	2.33

CCCC1COC(Cn2cncn2)(c2ccc(Cl)cc2Cl)O1 (configuration not stated) [Propiconazole]
Conditions	LDH release cytotoxicity [%]
0.03162 µM	-1.15
0.1 µM	-1.4
0.3162278 µM	-1.43
1 µM	-0.956
3.16228 µM	-0.902
10 µM	-0.927
31.6228 µM	12.7
100 µM	26.8

CCCCOC(=O)CCCCC(=O)OCCCC [Dibutyl adipate]
Conditions	LDH release cytotoxicity [%]
0.0317809 µM	-0.761
0.1005 µM	-1.45
0.317809 µM	-1.74
1.005 µM	-1.12
3.17809 µM	-1.24
10.05 µM	-0.568
31.7809 µM	0.579
100.5 µM	2.35

CCC1(c2ccccc2)C(=O)N=C(O)NC1=O (configuration not stated) [Phenobarbital sodium]
Conditions	LDH release cytotoxicity [%]
0.03162 µM	-1.03
0.1 µM	-0.9
0.3162278 µM	-1.41
1 µM	-0.43
3.16228 µM	-0.289
10 µM	-0.0423
31.6228 µM	0.694
100 µM	1.83

CC(=O)SC1CC2=CC(=O)CCC2(C)C2CCC3(C)C(CCC34CCC(=O)O4)C12 (configuration not stated) [Spironolactone]
Conditions	LDH release cytotoxicity [%]
0.03162 µM	0.148
0.1 µM	-0.279
0.3162278 µM	-1.43
1 µM	-1.93
3.16228 µM	-1.42
10 µM	-1.46
31.6228 µM	-0.441
100 µM	13.5

COc1cccc(C(O)C2CCN(CCc3ccc(F)cc3)CC2)c1OC (configuration not stated) [Volinanserin]
Conditions	LDH release cytotoxicity [%]
0.03162 µM	-0.377
0.1 µM	-1.03
0.3162278 µM	0.298
1 µM	-0.566
3.16228 µM	-0.0858
10 µM	-1.21
31.6228 µM	0.408
100 µM	7.12

CNC(=O)Oc1cccc2c1OC(C)(C)C2 [Carbofuran]
Conditions	LDH release cytotoxicity [%]
0.03162 µM	-0.0403
0.1 µM	-0.693
0.3162278 µM	-0.49
1 µM	-0.23
3.16228 µM	-0.812
10 µM	-1.07
31.6228 µM	-0.52
100 µM	0.343

CCNc1cccc(C)c1 [N-Ethyl-3-methylaniline]
Conditions	LDH release cytotoxicity [%]
0.03162 µM	-1.25
0.1 µM	-0.734
0.3162278 µM	-1.13
1 µM	-0.866
3.16228 µM	-0.912
10 µM	-0.509
31.6228 µM	-0.424
100 µM	1.66

CC(C)CC(C)O (configuration not stated) [4-Methyl-2-pentanol]
Conditions	LDH release cytotoxicity [%]
0.03162 µM	-0.36
0.1 µM	-0.242
0.3162278 µM	-1.1
1 µM	-1.21
3.16228 µM	-1.33
10 µM	-1.04
31.6228 µM	0.165
100 µM	2.03

COC(=O)Nc1nc2ccccc2[nH]1 [Carbendazim]
Conditions	LDH release cytotoxicity [%]
0.03162 µM	-1.09
0.1 µM	-0.973
0.3162278 µM	-1.51
1 µM	-1.78
3.16228 µM	-1.63
10 µM	7.25
31.6228 µM	7.37
100 µM	8.69

NS(=O)(=O)C(F)(F)C(F)(F)C(F)(F)C(F)(F)C(F)(F)C(F)(F)C(F)(F)C(F)(F)F [Perfluorooctanesulfonamide]
Conditions	LDH release cytotoxicity [%]
0.03162 µM	-1.99
0.1 µM	-2.06
0.3162278 µM	-2.69
1 µM	-1.57
3.16228 µM	-1.2
10 µM	-4.2
31.6228 µM	41.1
100 µM	86.8

O=C1CN(N=Cc2ccc([N+](=O)[O-])o2)C(=O)N1 [Nitrofurantoin]
Conditions	LDH release cytotoxicity [%]
0.03162 µM	-0.977
0.1 µM	-1.36
0.3162278 µM	-1.01
1 µM	-0.456
3.16228 µM	-1.09
10 µM	-0.861
31.6228 µM	-0.189
100 µM	2.15

CC(=O)Oc1ccccc1C(=O)O [Aspirin]
Conditions	LDH release cytotoxicity [%]
0.03162 µM	-1.2
0.1 µM	-0.322
0.3162278 µM	0.562
1 µM	-0.207
3.16228 µM	-0.296
10 µM	-0.207
31.6228 µM	0.489
100 µM	2.14

C1=CCCC=CCCC=CCC1 [1,5,9-Cyclododecatriene]
Conditions	LDH release cytotoxicity [%]
0.032888 µM	0.325
0.104 µM	-1.08
0.328877 µM	-2.13
1.04 µM	-1.59
3.28877 µM	-1.09
10.4 µM	-1.273
32.8877 µM	-1.4
104 µM	0.633

CCCCCCCCCc1ccc(O)cc1 [4-Nonylphenol]
Conditions	LDH release cytotoxicity [%]
0.03162 µM	-1.27
0.1 µM	-0.659
0.3162278 µM	-1.49
1 µM	-1.65
3.16228 µM	-0.715
10 µM	0.445
31.6228 µM	-0.17
100 µM	1.51

CC(C)CCO [Isopentyl alcohol]
Conditions	LDH release cytotoxicity [%]
0.0317809 µM	-1.55
0.1005 µM	-1.43
0.317809 µM	-2.18
1.005 µM	-2.36
3.17809 µM	-1.495
10.05 µM	-1.51
31.7809 µM	-1.18
100.5 µM	-0.0999

CCC12COCN1COC2 [7a-Ethyldihydro-1H,3H,5H-oxazolo(3,4-c)oxazole]
Conditions	LDH release cytotoxicity [%]
0.03162 µM	-1.45
0.1 µM	-1.96
0.3162278 µM	-1.68
1 µM	-1.43
3.16228 µM	-1.46
10 µM	-1.34
31.6228 µM	0.0307
100 µM	0.471

Nc1ccn(C2OC(CO)C(O)C2O)c(=O)n1 (configuration not stated) [Cytarabine hydrochloride]
Conditions	LDH release cytotoxicity [%]
0.03162 µM	-0.941
0.1 µM	-1.96
0.3162278 µM	-0.891
1 µM	-1.56
3.16228 µM	-0.827
10 µM	0.301
31.6228 µM	1.76
100 µM	4.47

CCC(C)N1C(=O)N=C(C)C(Br)C1=O (configuration not stated) [Bromacil]
Conditions	LDH release cytotoxicity [%]
0.031623 µM	-0.635
0.1 µM	-3.85
0.316228 µM	-3.85
1 µM	-3.54
3.16228 µM	-3.65
10 µM	-2.46
31.6228 µM	0.888
100 µM	5.41

Nc1nc(=O)c2nc(CNc3ccc(C(=O)NC(CCC(=O)O)C(=O)O)cc3)cnc2[nH]1 (configuration not stated) [Folic acid]
Conditions	LDH release cytotoxicity [%]
0.03162 µM	-0.0941
0.1 µM	-1.11
0.3162278 µM	-1.22
1 µM	-1.1
3.16228 µM	-0.966
10 µM	-0.672
31.6228 µM	-0.33
100 µM	1.64

c1nc[nH]n1 [1H-1,2,4-Triazole]
Conditions	LDH release cytotoxicity [%]
0.03162 µM	0.679
0.1 µM	0.298
0.3162278 µM	-1.06
1 µM	-0.618
3.16228 µM	0.566
10 µM	0.541
31.6228 µM	1.08
100 µM	2.04
